Source: PMC10882719 (Frontiers in Neuroscience, 2024)
Where two headings read alike, the source gives them in different places.

Assays:
Format in all cases: cell-based
168 GPCRs [1] = target: T1, 168 GPCRs (Homo sapiens, UniProt P32745); conditions: SSTR3
T1 construct: host or cells: PathHunter cell lines

168 GPCRs [2] = target: T2, 168 GPCRs (Homo sapiens, UniProt P28566); conditions: HTR1E
T2 construct: host or cells: PathHunter cell lines

168 GPCRs [3] = target: T3, 168 GPCRs (Homo sapiens, UniProt P14416); conditions: DRD2L
T3 construct: host or cells: PathHunter cell lines
T3 sequence (P14416 whole entry): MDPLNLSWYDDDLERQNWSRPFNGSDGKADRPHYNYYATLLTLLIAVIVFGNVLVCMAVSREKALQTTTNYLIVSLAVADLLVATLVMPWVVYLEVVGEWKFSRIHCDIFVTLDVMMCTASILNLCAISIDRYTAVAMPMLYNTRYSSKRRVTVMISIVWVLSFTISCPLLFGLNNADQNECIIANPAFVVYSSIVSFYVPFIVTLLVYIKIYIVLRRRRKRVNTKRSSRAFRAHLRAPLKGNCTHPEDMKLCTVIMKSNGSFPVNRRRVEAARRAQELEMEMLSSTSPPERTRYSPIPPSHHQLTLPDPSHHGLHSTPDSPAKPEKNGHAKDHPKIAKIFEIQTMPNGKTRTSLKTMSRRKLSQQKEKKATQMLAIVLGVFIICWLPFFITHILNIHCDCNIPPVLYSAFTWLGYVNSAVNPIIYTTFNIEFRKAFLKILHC

168 GPCRs [4] = target: T4, 168 GPCRs (Homo sapiens, UniProt P48546); conditions: GIPR
T4 construct: host or cells: PathHunter cell lines
T4 sequence (P48546 22-466): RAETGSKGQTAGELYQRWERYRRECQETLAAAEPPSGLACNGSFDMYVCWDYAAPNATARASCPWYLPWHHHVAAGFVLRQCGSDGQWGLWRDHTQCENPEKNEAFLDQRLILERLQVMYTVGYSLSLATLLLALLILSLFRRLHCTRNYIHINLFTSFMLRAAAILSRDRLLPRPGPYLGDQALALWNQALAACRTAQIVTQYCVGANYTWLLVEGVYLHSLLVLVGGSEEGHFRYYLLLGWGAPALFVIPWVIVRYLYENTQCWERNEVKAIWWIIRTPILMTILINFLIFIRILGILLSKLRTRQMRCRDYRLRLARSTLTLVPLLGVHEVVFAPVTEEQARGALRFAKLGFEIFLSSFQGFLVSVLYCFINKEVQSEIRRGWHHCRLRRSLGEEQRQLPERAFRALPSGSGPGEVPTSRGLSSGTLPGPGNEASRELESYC

168 GPCRs [5] = target: T5, 168 GPCRs (Homo sapiens, UniProt P25101); conditions: EDNRA
T5 construct: host or cells: PathHunter cell lines
T5 sequence (P25101 21-427): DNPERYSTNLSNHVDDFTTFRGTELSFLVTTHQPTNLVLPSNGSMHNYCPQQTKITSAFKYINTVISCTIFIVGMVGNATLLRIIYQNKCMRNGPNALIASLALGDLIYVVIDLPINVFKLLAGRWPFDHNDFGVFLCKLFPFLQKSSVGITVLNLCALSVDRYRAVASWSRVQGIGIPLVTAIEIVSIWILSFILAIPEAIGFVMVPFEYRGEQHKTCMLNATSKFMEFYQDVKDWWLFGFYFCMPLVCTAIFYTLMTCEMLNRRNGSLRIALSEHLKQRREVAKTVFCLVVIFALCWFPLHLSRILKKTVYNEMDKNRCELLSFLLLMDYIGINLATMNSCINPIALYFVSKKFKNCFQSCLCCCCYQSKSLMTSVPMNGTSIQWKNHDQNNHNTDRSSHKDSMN

168 GPCRs [6] = target: T6, 168 GPCRs (Homo sapiens, UniProt P30874); conditions: SSTR2
T6 construct: host or cells: PathHunter cell lines
T6 sequence (P30874 whole entry): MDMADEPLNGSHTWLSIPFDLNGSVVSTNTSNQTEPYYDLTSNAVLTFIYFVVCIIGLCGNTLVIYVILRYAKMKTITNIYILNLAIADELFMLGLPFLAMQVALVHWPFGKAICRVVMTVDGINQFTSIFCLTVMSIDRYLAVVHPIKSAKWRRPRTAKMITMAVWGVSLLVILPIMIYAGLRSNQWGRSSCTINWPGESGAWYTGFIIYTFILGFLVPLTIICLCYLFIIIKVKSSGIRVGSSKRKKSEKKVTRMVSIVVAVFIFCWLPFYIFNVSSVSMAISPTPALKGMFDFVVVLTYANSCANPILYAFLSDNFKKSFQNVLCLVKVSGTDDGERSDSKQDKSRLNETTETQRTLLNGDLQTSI

168 GPCRs [7] = target: T7, 168 GPCRs (Homo sapiens, UniProt P25929); conditions: NPY1R
T7 construct: host or cells: PathHunter cell lines
T7 sequence (P25929 1-384): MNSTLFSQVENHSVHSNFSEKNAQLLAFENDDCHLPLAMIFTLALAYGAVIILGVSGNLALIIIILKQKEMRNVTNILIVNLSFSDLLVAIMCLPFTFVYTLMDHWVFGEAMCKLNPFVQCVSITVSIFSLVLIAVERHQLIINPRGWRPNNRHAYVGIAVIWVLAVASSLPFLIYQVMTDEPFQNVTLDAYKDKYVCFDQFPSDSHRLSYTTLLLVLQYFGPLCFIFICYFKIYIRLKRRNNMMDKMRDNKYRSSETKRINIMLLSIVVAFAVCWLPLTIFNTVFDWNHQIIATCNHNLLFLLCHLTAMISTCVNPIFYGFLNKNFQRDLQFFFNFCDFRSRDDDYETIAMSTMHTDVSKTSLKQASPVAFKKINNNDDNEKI

168 GPCRs [8] = target: T8, 168 GPCRs (Homo sapiens, UniProt P25116); conditions: F2R
T8 construct: host or cells: PathHunter cell lines
T8 sequence (P25116 22-425): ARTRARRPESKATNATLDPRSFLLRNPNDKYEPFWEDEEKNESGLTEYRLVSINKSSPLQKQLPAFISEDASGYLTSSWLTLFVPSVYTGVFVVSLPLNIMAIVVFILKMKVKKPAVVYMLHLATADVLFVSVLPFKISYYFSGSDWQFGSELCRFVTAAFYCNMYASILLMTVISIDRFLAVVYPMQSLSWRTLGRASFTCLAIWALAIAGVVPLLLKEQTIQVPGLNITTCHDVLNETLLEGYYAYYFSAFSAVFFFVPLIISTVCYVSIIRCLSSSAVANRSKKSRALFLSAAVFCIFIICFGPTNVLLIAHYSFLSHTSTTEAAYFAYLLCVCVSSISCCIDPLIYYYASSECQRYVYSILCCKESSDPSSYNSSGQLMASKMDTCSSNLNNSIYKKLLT

T2 sequence (P28566 whole entry): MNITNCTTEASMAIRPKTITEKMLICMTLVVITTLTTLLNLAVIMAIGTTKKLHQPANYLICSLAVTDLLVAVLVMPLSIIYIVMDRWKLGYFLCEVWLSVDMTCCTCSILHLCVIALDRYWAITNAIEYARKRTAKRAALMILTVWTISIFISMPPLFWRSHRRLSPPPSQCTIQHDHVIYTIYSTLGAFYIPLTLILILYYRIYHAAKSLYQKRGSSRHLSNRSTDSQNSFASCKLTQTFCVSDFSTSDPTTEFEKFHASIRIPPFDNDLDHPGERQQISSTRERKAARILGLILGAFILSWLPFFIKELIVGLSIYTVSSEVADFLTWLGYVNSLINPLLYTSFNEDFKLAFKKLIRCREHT
T1 sequence (P32745 whole entry): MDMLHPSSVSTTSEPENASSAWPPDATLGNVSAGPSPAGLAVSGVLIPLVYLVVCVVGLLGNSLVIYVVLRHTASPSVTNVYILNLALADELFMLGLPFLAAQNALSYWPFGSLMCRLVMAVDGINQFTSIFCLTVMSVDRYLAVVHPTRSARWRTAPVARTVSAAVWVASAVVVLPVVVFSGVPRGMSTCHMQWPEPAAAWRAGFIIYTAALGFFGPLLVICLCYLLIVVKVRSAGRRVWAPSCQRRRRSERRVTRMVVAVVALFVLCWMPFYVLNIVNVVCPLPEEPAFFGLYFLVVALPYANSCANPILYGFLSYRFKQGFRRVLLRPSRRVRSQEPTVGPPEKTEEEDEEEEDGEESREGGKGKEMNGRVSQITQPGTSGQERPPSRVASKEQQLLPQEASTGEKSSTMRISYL

Row | Compound | % Agonist Activity (168 GPCRs [1]; Conc 1 uM) [%] | % Antagonist Activity (168 GPCRs [1]; Conc 1 uM) [%] | % Agonist Activity (168 GPCRs [1]; Conc 10 uM) [%] | % Antagonist Activity (168 GPCRs [1]; Conc 10 uM) [%] | % Agonist Activity (168 GPCRs [2]; 1 uM) [%] | % Antagonist Activity (168 GPCRs [2]; 1 uM) [%] | % Agonist Activity (168 GPCRs [2]; 10 uM) [%] | % Antagonist Activity (168 GPCRs [2]; 10 uM) [%] | % Agonist Activity (168 GPCRs [3]; 1 uM) [%] | % Antagonist Activity (168 GPCRs [3]; 1 uM) [%] | % Agonist Activity (168 GPCRs [3]; 10 uM) [%] | % Antagonist Activity (168 GPCRs [3]; 10 uM) [%] | % Agonist Activity (168 GPCRs [4]; 1 uM) [%] | % Antagonist Activity (168 GPCRs [4]; 1 uM) [%] | % Agonist Activity (168 GPCRs [4]; 10 uM) [%] | % Antagonist Activity (168 GPCRs [4]; 10 uM) [%] | % Agonist Activity (168 GPCRs [5]; 1 uM) [%] | % Antagonist Activity (168 GPCRs [5]; 1 uM) [%] | % Agonist Activity (168 GPCRs [5]; 10 uM) [%] | % Antagonist Activity (168 GPCRs [5]; 10 uM) [%] | also measured
1 | CNC(C)C(=O)c1ccc2c(c1)OCO2 (stereo not shown) [methylone] | 0.7 | 13.2 | 0.3 | 8 | -3.5 | 7.6 | 0.2 | 13.2 | 0.1 | 1.1 | -0.7 | 0.1 | -2.9 | -1 | -5.8 | -5.1 | 0.3 | -2.4 | 1.4 | -11.3 | % Agonist Activity (168 GPCRs [6]; Conc 1 uM): 0%; % Antagonist Activity (168 GPCRs [6]; Conc 1 uM): -0.4%; % Agonist Activity (168 GPCRs [6]; Conc 10 uM): 0.7%; % Antagonist Activity (168 GPCRs [6]; Conc 10 uM): -4.2%; % Agonist Activity (168 GPCRs [7]; Conc 1 uM): -2.2%; % Antagonist Activity (168 GPCRs [7]; Conc 1 uM): 0.2%; % Agonist Activity (168 GPCRs [7]; Conc 10 uM): -4.9%; % Antagonist Activity (168 GPCRs [7]; Conc 10 uM): 5.4%; % Agonist Activity (168 GPCRs [8]; 1 uM): -2.5%; % Antagonist Activity (168 GPCRs [8]; 1 uM): -11.6%; % Agonist Activity (168 GPCRs [8]; 10 uM): 0.2%; % Antagonist Activity (168 GPCRs [8]; 10 uM): -11.4%
2 | CNC(C)Cc1ccc2c(c1)OCO2 (stereo not shown) [MDMA, 3,4-Methylenedioxy methamphetamine, reference compound] | 2.9 | 3.7 | 0.1 | -0.9 | 1.9 | 18 | 1.1 | 12.7 | 3.3 | 4.8 | 2.6 | 11.7 | -2.6 | -0.1 | -3.3 | -0.1 | -1.1 | 2.5 | -1.9 | 4.6 | % Agonist Activity (168 GPCRs [6]; Conc 1 uM): 0%; % Antagonist Activity (168 GPCRs [6]; Conc 1 uM): 2.7%; % Agonist Activity (168 GPCRs [6]; Conc 10 uM): 0.2%; % Antagonist Activity (168 GPCRs [6]; Conc 10 uM): 9.1%; % Agonist Activity (168 GPCRs [7]; Conc 1 uM): 1.3%; % Antagonist Activity (168 GPCRs [7]; Conc 1 uM): -3.9%; % Agonist Activity (168 GPCRs [7]; Conc 10 uM): 0.6%; % Antagonist Activity (168 GPCRs [7]; Conc 10 uM): 2.2%; % Agonist Activity (168 GPCRs [8]; 1 uM): -0.7%; % Antagonist Activity (168 GPCRs [8]; 1 uM): 1.2%; % Agonist Activity (168 GPCRs [8]; 10 uM): -1.2%; % Antagonist Activity (168 GPCRs [8]; 10 uM): 5.9%
